Results reported in patent publication US20170050957A1, “4-AMINO-6-(HETEROCYCLIC)PICOLINATES AND 6-AMINO-2-(HETEROCYCLIC)PYRIMIDINE-4-CARBOXYLATES AND THEIR USE AS HERBICIDES” (Dow AgroSciences LLC, priority 2013, published 2017).
Like-named read-outs stand apart in the source and are kept apart here.

Experiments:
[1] = tested on: Key Broadleaf Weed and Crop Species; experiment: Post-emergent Test II herbicidal activity (Table 15); type: in vivo; conditions: post-emergence, 336 h, 14 d; for pest or weed control at 35 g/ha: 35 g ai/ha; for pest or weed control at 70 g/ha: 70 g ai/ha; for pest or weed control at 140 g/ha: 140 g ai/ha
Method in brief: (§1)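 Post-emergence spray; seedlings 7-21 d old, 1st-2nd true leaf; 187 L/ha; serial rates 1×-1/16×; solvent blank controls; subirrigated; visual % injury at 14 d.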

[2] = tested on: Key Grass and Sedge Weeds as well as Grass Crops; experiment: Post-emergent Test II herbicidal activity (Table 16); type: in vivo; conditions: post-emergence, 336 h, 14 days after application; for pest or weed control at 35 g/ha: 35 g ai/ha; for pest or weed control at 70 g/ha: 70 g ai/ha; for pest or weed control at 140 g/ha: 140 g ai/ha
Method in brief: as §1

[3] = Abutilon theophrasti, velvetleaf (Abutilon theophrasti), read-out: Visual Growth Reduction (%) 14 Days After Application, ABUTH
[4] = Amaranthus retroflexus, redroot pigweed (Amaranthus retroflexus), read-out: Visual Growth Reduction (%) 14 Days After Application, AMARE
[5] = Brassica napus, oilseed rape, canola (Brassica napus), read-out: Visual Growth Reduction (%) 14 Days After Application, BRSNN
[6] = Chenopodium album, lambsquarters (Chenopodium album), read-out: Visual Growth Reduction (%) 14 Days After Application, CHEAL
[7] = Helianthus annuus, sunflower (Helianthus annuus), read-out: Visual Growth Reduction (%) 14 Days After Application, HELAN
[8] = Echinochloa crus-galli, barnyardgrass (Echinochloa crus-galli), read-out: Visual Growth Reduction (%) 14 Days After Application ECHCG
[9] = Oryza sativa, rice (Oryza sativa), read-out: Visual Growth Reduction (%) 14 Days After Application ORYSA
[10] = Setaria faberi, giant foxtail (Setaria faberi), read-out: Visual Growth Reduction (%) 14 Days After Application SETFA
[11] = Triticum aestivum, wheat, spring (Triticum aestivum), read-out: Visual Growth Reduction (%) 14 Days After Application TRZAS
[12] = Zea mays, maize, corn (Zea mays), read-out: Visual Growth Reduction (%) 14 Days After Application ZEAMX

COC(=O)c1nc(-c2ccc3ocnc3c2)c(F)c(N)c1Cl [Compound 5.01]
pest or weed control at 35 g/ha [1, 3]: 60 to 74%
pest or weed control at 70 g/ha [1, 3]: 60 to 74%
pest or weed control at 140 g/ha [1, 3]: 60 to 74%
pest or weed control at 35 g/ha [1, 4]: 75 to 84%
pest or weed control at 70 g/ha [1, 4]: 85 to 94%
pest or weed control at 140 g/ha [1, 4]: 85 to 94%
pest or weed control at 35 g/ha [1, 5]: 85 to 94%
pest or weed control at 70 g/ha [1, 5]: 95 to 100%
pest or weed control at 140 g/ha [1, 5]: 95 to 100%
pest or weed control at 35 g/ha [1, 6]: 60 to 74%
pest or weed control at 70 g/ha [1, 6]: 85 to 94%
pest or weed control at 140 g/ha [1, 6]: 85 to 94%
pest or weed control at 70 g/ha ([1]; Euphorbia heterophylla, wild poinsettia (Euphorbia heterophylla), read-out: Visual Growth Reduction (%) 14 Days After Application, EPHHL): 95 to 100%
pest or weed control at 35 g/ha [1, 7]: 85 to 94%
pest or weed control at 70 g/ha [1, 7]: 85 to 94%
pest or weed control at 140 g/ha [1, 7]: 95 to 100%
pest or weed control at 35 g/ha [2, 8]: 75 to 84%
pest or weed control at 70 g/ha [2, 8]: 75 to 84%
pest or weed control at 140 g/ha [2, 8]: 85 to 94%
pest or weed control at 35 g/ha [2, 9]: 0 to 29%
pest or weed control at 70 g/ha [2, 9]: 0 to 29%
pest or weed control at 140 g/ha [2, 9]: 0 to 29%
pest or weed control at 35 g/ha [2, 10]: 0 to 29%
pest or weed control at 70 g/ha [2, 10]: 0 to 29%
pest or weed control at 140 g/ha [2, 10]: 0 to 29%
pest or weed control at 35 g/ha [2, 11]: 0 to 29%
pest or weed control at 70 g/ha [2, 11]: 0 to 29%
pest or weed control at 140 g/ha [2, 11]: 0 to 29%
pest or weed control at 35 g/ha [2, 12]: 0 to 29%
pest or weed control at 70 g/ha [2, 12]: 0 to 29%
pest or weed control at 140 g/ha [2, 12]: 0 to 29%
